Converted amounts (≈) assume the structure as drawn.
Columns and labels:
marine bacteria [1] = experiment: Bacterial adhesion assay, whole panel of ten strains; format: cell-based, 10 marine bacterial strains; settings: tested up to 10 μg/mL, active = MIC of 10 μg/mL or below
Excerpt: (§1) Cyprid larvae of B. improvisus were reared in a laboratory cultivating system at Tjärnö Marine Biological Laboratory, University of Gothenburg, Sweden, as previously described by Berntsson et al. ([2000]). Four pure, but non-axenic, marine microalgae (obtained from Algobank, Caen, France) and 10 marine bacterial strains were used (Table 1) as representative microfoulers. These strains represent fouling species encountered in both estuarine and marine environments (Moodie et al. [2017b]). The bacteria were grown at 26 °C in a marine medium, composed of 0.5% peptone (neutralized bacteriological peptone, Oxoid Ltd.) in filtered (Whatman 1001–270, pore size 11 μm) natural seawater. Microalgae were grown and maintained at 22 °C in F/2 medium.
(§2) Bacterial strain adhesion and growth were determined according to the methods of Thabard et al. ([2011]). Bacterial suspensions (100-μL aliquots, 2 × 10^8 colony forming units/mL) were aseptically added to the compound containing microplate wells (10–0.01 μg/mL), and the plates were incubated for 48 h at 26 °C. Media only was used as a blank. Bacterial growth was monitored spectroscopically at 630 nm. The minimal inhibitory concentration (MIC) for bacterial growth was defined as the lowest concentration which results in a decrease in OD. After 48-h incubation time, the bacterial adhesion assay was conducted by emptying the wells and rinsing with sterile seawater (100 μL) to remove non-attached cells, and air-drying at room temperature. The residual bacterial biofilm was stained with aqueous crystal violet (100 μL, 0.3% v/v) and the OD measured at 595 nm (Sonak and Bhosle [1995]). […] If inhibition was observed, toxicity tests were conducted. The well contents were transferred into a flask of fresh media, and growth was measured after 5 days of additional incubation. The mode of action was deemed biostatic if an increase in OD was measured at 595 nm (Moodie et al. [2017a]).

Halomonas aquamarina [2] = experiment: Bacterial growth assay (OD 630 nm); format: cell-based; settings: Vreelandella aquamarina, 48 h incubation, 10–0.01 μg/mL tested, read-out: MIC against the growth of marine bacteria, H.a.
Excerpt: as §1, §2

[3] = system: Pseudoalteromonas elyakovii; experiment: Bacterial growth assay (OD 630 nm); format: cell-based; settings: 48 h incubation, 10–0.01 μg/mL tested, read-out: MIC against the growth of marine bacteria, P.e.
Excerpt: as §1, §2

Roseobacter litoralis = experiment: Bacterial growth assay (OD 630 nm); format: cell-based; settings: 48 h incubation, 10–0.01 μg/mL tested, read-out: MIC against the growth of marine bacteria, R.l.
Excerpt: as §1, §2

Shewanella putrefaciens = experiment: Bacterial growth assay (OD 630 nm); format: cell-based; settings: 48 h incubation, 10–0.01 μg/mL tested, read-out: MIC against the growth of marine bacteria, S.p.
Excerpt: as §1, §2

Vibrio aestuarianus [4] = experiment: Bacterial growth assay (OD 630 nm); format: cell-based; settings: 48 h incubation, 10–0.01 μg/mL tested, read-out: MIC against the growth of marine bacteria, V.a.
Excerpt: as §1, §2

Vibrio carchariae [5] = experiment: Bacterial growth assay (OD 630 nm); format: cell-based; settings: Vibrio harveyi, 48 h incubation, 10–0.01 μg/mL tested, read-out: MIC against the growth of marine bacteria, V.c.
Excerpt: as §1, §2

Vibrio harveyi [6] = experiment: Bacterial growth assay (OD 630 nm); format: cell-based; settings: 48 h incubation, 10–0.01 μg/mL tested, read-out: MIC against the growth of marine bacteria, V.h.
Excerpt: as §1, §2

Vibrio natriegens = experiment: Bacterial growth assay (OD 630 nm); format: cell-based; settings: 48 h incubation, 10–0.01 μg/mL tested, read-out: MIC against the growth of marine bacteria, V.n.
Excerpt: as §1, §2

Vibrio proteolyticus [7] = experiment: Bacterial growth assay (OD 630 nm); format: cell-based; settings: 48 h incubation, 10–0.01 μg/mL tested, read-out: MIC against the growth of marine bacteria, V.p.
Excerpt: as §1, §2

Cylindrotheca closterium [8] = experiment: Microalgal adhesion assay (chlorophyll a); format: cell-based; settings: 120 h, 5 days incubation, 10–0.01 μg/mL tested, read-out: MIC against the adhesion (A) of microalgae, C. closterium
Excerpt: as §1
(§3) Microplates containing the compounds in ranging concentrations (10–0.01 μg/mL) were prepared from MeOH stock solutions as previously described (Trepos et al. [2014]; Moodie et al. [2017a]). Microalgal stock solutions were prepared using the chlorophyll analysis methodology of Chambers et al. ([2011]). The pretreated microplate wells were treated with 100 μL of the algal stock solutions (0.1 mg chlorophyll a/mL). The plates were then incubated for 5 days at 20 °C under constant light exposure (140 μmol m^−2 s^−1). Both microalgal adhesion and growth inhibition were measured. Growth was determined by analysis of liberated chlorophyll a after centrifugation and methanol addition. Chlorophyll a was quantified fluorometrically. MIC value for algal growth was defined as the lowest concentration yielding a decrease in chlorophyll a content. Microalgal adhesion was determined in an analogous manner where the non-attached algal cells were removed prior to methanol addition (100 μL), releasing chlorophyll a from the remaining algal biofilms. The MIC for adhesion was defined as the lowest compound concentration causing a reduction in […]. Toxicity experiments were performed in an analogous manner to those described for the bacterial assays.

[9] = system: Pleurochrysis roscoffensis; experiment: Microalgal adhesion assay (chlorophyll a); format: cell-based; settings: Chrysotila roscoffensis, 120 h, 5 days incubation, 10–0.01 μg/mL tested, read-out: MIC against the adhesion (A) of microalgae, P. roscoffensis
Excerpt: as §1, §3

Porphyridium purpureum [10] = experiment: Microalgal adhesion assay (chlorophyll a); format: cell-based; settings: 120 h, 5 days incubation, 10–0.01 μg/mL tested, read-out: MIC against the adhesion (A) of microalgae, P. purpureum
Excerpt: as §1, §3

Cylindrotheca closterium [11] = experiment: Microalgal growth assay (chlorophyll a); format: cell-based; settings: 120 h, 5 days incubation, 10–0.01 μg/mL tested, read-out: MIC against the growth (G) of microalgae, C. closterium
Excerpt: as §1, §3

Halamphora coffeaeformis [12] = experiment: Microalgal growth assay (chlorophyll a); format: cell-based; settings: Halamphora coffeiformis, 120 h, 5 days incubation, 10–0.01 μg/mL tested, read-out: MIC against the growth (G) of microalgae, H. coffeaformis
Excerpt: as §1, §3

[13] = system: Pleurochrysis roscoffensis; experiment: Microalgal growth assay (chlorophyll a); format: cell-based; settings: Chrysotila roscoffensis, 120 h, 5 days incubation, 10–0.01 μg/mL tested, read-out: MIC against the growth (G) of microalgae, P. roscoffensis
Excerpt: as §1, §3

Porphyridium purpureum [14] = experiment: Microalgal growth assay (chlorophyll a); format: cell-based; settings: 120 h, 5 days incubation, 10–0.01 μg/mL tested, read-out: MIC against the growth (G) of microalgae, P. purpureum
Excerpt: as §1, §3

[15] = system: Balanus improvisus cyprid larvae; experiment: whole plant or invertebrate; format: in vivo; settings: for IC50: Amphibalanus improvisus, 120 h, read-out: IC50 (cyprid settlement inhibition)
Summary of the method: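 Freshly molted cyprids (18–22 per dish) exposed in filtered seawater to 0.1–10 μg/mL compound (0.1% DMSO controls) for 5 days at 20–25 °C. Settled, swimming and dead larvae counted by microscope; IC50 is the concentration preventing 50% settlement, n = 4, determined only for compounds inhibiting >50% at 5 μg/mL.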

Halomonas aquamarina [16] = experiment: Bacterial adhesion assay (crystal violet, OD 595 nm); format: cell-based; settings: Vreelandella aquamarina, 48 h incubation, 10–0.01 μg/mL tested, read-out: MIC against the adhesion of marine bacteria, H.a.
Excerpt: as §1, §2

Vibrio aestuarianus [17] = experiment: as above; format: cell-based; settings: 48 h, read-out: MIC against the adhesion of marine bacteria, V.a.
Excerpt: as §1, §2

Vibrio carchariae [18] = experiment: as above; format: cell-based; settings: Vibrio harveyi, 48 h, read-out: MIC against the adhesion of marine bacteria, V.c.
Excerpt: as §1, §2

Vibrio harveyi [19] = experiment: as above; format: cell-based; settings: 48 h, read-out: MIC against the adhesion of marine bacteria, V.h.
Excerpt: as §1, §2

Vibrio proteolyticus [20] = experiment: as above; format: cell-based; settings: 48 h, read-out: MIC against the adhesion of marine bacteria, V.p.
Excerpt: as §1, §2

marine bacteria [21] = experiment: Bacterial growth assay, whole panel of ten strains; format: cell-based, 10 marine bacterial strains; settings: tested up to 10 μg/mL
Excerpt: as §1, §2

Halamphora coffeaeformis [22] = experiment: Microalgal adhesion assay (chlorophyll a); format: cell-based; settings: Halamphora coffeiformis, 120 h, 5 days incubation, 10–0.01 μg/mL tested, read-out: MIC against the adhesion (A) of microalgae, H. coffeaformis
Excerpt: as §1, §3

microalgae = experiment: Microalgal adhesion and growth, whole panel of four species; format: cell-based, four marine microalgae; settings: 10–0.01 μg/mL tested
Excerpt: as §1, §3

SMILES: COc1ccc(CC(=NO)c2ccc(O)c(OC)c2)cc1 [Compound 11, 1-(3-methoxy-4-hydroxyphenyl)-1-hydroxyimino-2-(4’-methoxyphenyl)-ethane]
- MIC / activity against the adhesion of all bacteria tested (marine bacteria [1]): ^aCompounds 7, 8, 10, 11, and 12 were inactive against the adhesion of all bacteria tested up to 10 μg/mL
- MIC (Halomonas aquamarina [2]): 10 µg/mL (≈ 34.8 µM)
- MIC [3]: > 10 µg/mL
- MIC (Roseobacter litoralis): > 10 µg/mL
- MIC (Shewanella putrefaciens): > 10 µg/mL
- MIC (Vibrio aestuarianus [4]): > 10 µg/mL
- MIC (Vibrio carchariae [5]): > 10 µg/mL
- MIC (Vibrio harveyi [6]): > 10 µg/mL
- MIC (Vibrio natriegens): > 10 µg/mL
- MIC (Vibrio proteolyticus [7]): > 10 µg/mL
- MIC (Cylindrotheca closterium [8]): > 10 µg/mL
- MIC [9]: > 10 µg/mL
- MIC (Porphyridium purpureum [10]): > 10 µg/mL
- MIC (Cylindrotheca closterium [11]): 10 µg/mL (≈ 34.8 µM)
- MIC (Halamphora coffeaeformis [12]): > 10 µg/mL
- MIC [13]: 10 µg/mL (≈ 34.8 µM)
- MIC (Porphyridium purpureum [14]): 10 µg/mL (≈ 34.8 µM)
- IC50 [15]: > 5 µg/mL
- inhibition of cyprid settlement in the initial screen ([15]; B. improvisus, at 5.0 μg/mL): inactive
- Toxicity (%) (dead cyprids) ([15]; Balanus improvisus, in vivo, 5 days, 5 μg/mL): 5.3%

SMILES: COc1cc(OC)cc(C(Cc2ccccc2)=NO)c1 [Compound 15, 1-(3,5-Dimethoxyphenyl)-1-Hydroxyimino-2-Phenylethane]
- MIC (Halomonas aquamarina [16]): 10 µg/mL (≈ 36.9 µM)
- MIC (Vibrio aestuarianus [17]): 10 µg/mL (≈ 36.9 µM)
- MIC (Vibrio carchariae [18]): 10 µg/mL (≈ 36.9 µM)
- MIC (Vibrio harveyi [19]): 10 µg/mL (≈ 36.9 µM)
- MIC (Vibrio proteolyticus [20]): > 10 µg/mL
- MIC / activity against the adhesion of all bacteria tested (marine bacteria [1]): displayed inhibitory activities
- MIC / activity against the growth of all bacteria tested (marine bacteria [21]): ^aCompound 15 was inactive against the growth of all bacteria tested up to 10 μg/mL
- MIC (Halamphora coffeaeformis [22]): 10 µg/mL (≈ 36.9 µM)
- MIC (Cylindrotheca closterium [11]): > 10 µg/mL
- MIC (Halamphora coffeaeformis [12]): > 10 µg/mL
- MIC [13]: > 10 µg/mL
- MIC (Porphyridium purpureum [14]): > 10 µg/mL
- IC50 [15]: 0.75 µg/mL (≈ 2.76 µM)
- MIC / activity against the attachment and growth of microalgae (microalgae): not significantly active

— publication PMC5889410, “Design and Biological Evaluation of Antifouling Dihydrostilbene Oxime Hybrids” (Marine Biotechnology (New York, N.y.), 2018)
